# In ChEMBL document CHEMBL4020765, “Synthesis and α-glucosidase inhibition activity of dihydroxy pyrrolidines” (Bioorg Med Chem Lett, 2017):
# Test system: not listed separately
# Assay: Inhibition of alpha glucosidase (unknown origin) using PNPG as substrate preincubated for 15 to 20 mins followed by substrate addition measured after 45 to 60 mins by spectrophotometric method
# Conditions: not given; call rule not given here
row,Structure (SMILES),IC50
1,O=C(CCc1ccc(F)cc1)Nc1ccc(CCC(=O)N2C[C@@H](O)[C@H](O)C2)cc1,Not Active
2,CC(C)(C)OC(=O)Nc1ccc(CCC(=O)N2C[C@@H](O)[C@H](O)C2)cc1,Not Active
3,O=C(/C=C/c1ccc(O)cc1)Nc1ccc(CCC(=O)N2C[C@@H](O)[C@H](O)C2)cc1,Not Active
4,O=C(CCc1ccc(F)cc1)Nc1ccc(CCC(=O)N2C[C@H](O)[C@@H](O)C2)cc1,Not Active
5,CC(C)(C)OC(=O)Nc1ccc(CCC(=O)N2C[C@H](O)[C@@H](O)C2)cc1,Not Active
6,O=C(/C=C/c1ccsc1)N1C[C@@H](O)[C@H](O)C1,Not Active
7,O=C(CCc1ccccc1F)N1C[C@@H](O)[C@H](O)C1,Not Active
8,O=C(/C=C/c1ccccc1C(F)(F)F)N1C[C@@H](O)[C@H](O)C1,Active
9,O=C(/C=C/c1ccc(O)cc1)Nc1ccc(CCC(=O)N2C[C@H](O)[C@@H](O)C2)cc1,Not Active
10,O=C(CCc1ccc(NS(=O)(=O)c2ccc(F)cc2)cc1)N1C[C@H](O)[C@@H](O)C1,Active
11,O=C(/C=C/c1ccc(C(F)(F)F)cc1)Nc1ccc(CCC(=O)N2C[C@@H](O)[C@H](O)C2)cc1,Not Active
12,O=C(CCc1ccccc1)N1C[C@H](O)[C@@H](O)C1,Not Active
13,O=C(CCc1ccccc1)N1C[C@@H](O)[C@H](O)C1,Not Active
14,O=C(/C=C/c1ccsc1)N1C[C@H](O)[C@@H](O)C1,Not Active

# The remaining lines, values ahead:
row,IC50,Structure (SMILES)
1,Not Active,O=C(/C=C/c1ccc(C(F)(F)F)cc1)Nc1ccc(CCC(=O)N2C[C@H](O)[C@@H](O)C2)cc1
2,Not Active,O=C(CCc1ccc(C(F)(F)F)cc1)Nc1ccc(CCC(=O)N2C[C@@H](O)[C@H](O)C2)cc1
3,Not Active,O=C(CCc1ccccc1F)N1C[C@H](O)[C@@H](O)C1
4,Active,O=S(=O)(c1ccc(OC(F)(F)F)cc1)N1C[C@@H](O)[C@H](O)C1
5,Active,O=C(CCc1ccc(NS(=O)(=O)c2ccc(F)cc2)cc1)N1C[C@@H](O)[C@H](O)C1
6,Not Active,O=C(CCc1ccc([N+](=O)[O-])cc1)N1C[C@@H](O)[C@H](O)C1
7,Not Active,O=C(CCc1ccc(C(F)(F)F)cc1)Nc1ccc(CCC(=O)N2C[C@H](O)[C@@H](O)C2)cc1

# Same assay, conditions: read-out: IC50
row,Structure (SMILES),IC50
1,OCC(CO)N[C@H]1C[C@](O)(CO)[C@@H](O)[C@H](O)[C@H]1O [VOGLIBOSE],325 µM
2,O=C(CCc1ccncc1)N1C[C@@H](O)[C@H](O)C1,966 µM
3,Cn1cc(C(=O)N2C[C@H](O)[C@@H](O)C2)c2ccccc21,594 µM
4,Cn1cc(C(=O)N2C[C@@H](O)[C@H](O)C2)c2ccccc21,531 µM
5,O=C(CCc1ccc(O)cc1)Nc1ccc(CCC(=O)N2C[C@H](O)[C@@H](O)C2)cc1,98.5 µM
6,O=C(CCc1ccc(C(F)(F)F)cc1)N1C[C@@H](O)[C@@H](O)C1,886 µM
7,O=S(=O)(c1ccc(C(F)(F)F)cc1)N1C[C@H](O)[C@@H](O)C1,497 µM
8,O=C(/C=C/c1ccccc1)N1C[C@@H](O)[C@H](O)C1,822 µM
9,O=C(Nc1ccc(CCC(=O)N2C[C@H](O)[C@@H](O)C2)cc1)c1ccsc1,495 µM
10,O=C(CCc1ccc(O)cc1)Nc1ccc(CCC(=O)N2C[C@@H](O)[C@H](O)C2)cc1,104 µM
11,O=C(/C=C/c1ccc(C(F)(F)F)cc1)N1C[C@@H](O)[C@@H](O)C1,638 µM
12,O=C(/C=C/c1ccc(F)cc1)Nc1ccc(CCC(=O)N2C[C@@H](O)[C@H](O)C2)cc1,111 µM
13,Nc1ccc(CCC(=O)N2C[C@@H](O)[C@H](O)C2)cc1,108 µM
14,O=C(CCc1ccsc1)N1C[C@H](O)[C@@H](O)C1,796 µM
15,O=C(CCc1ccc(O)cc1)N1C[C@@H](O)[C@H](O)C1,657 µM
16,O=C(/C=C/c1ccccc1F)N1C[C@H](O)[C@@H](O)C1,837 µM
17,O=C(CCc1ccc(O)cc1)N1C[C@H](O)[C@@H](O)C1,602 µM
18,Cn1c(C(=O)N2C[C@@H](O)[C@H](O)C2)cc2ccccc21,539 µM
19,O=C(/C=C/c1ccccc1)N1C[C@H](O)[C@@H](O)C1,747 µM
20,O=C(CCc1ccsc1)N1C[C@@H](O)[C@H](O)C1,723 µM
21,Nc1ccc(CCC(=O)N2C[C@@H](O)[C@@H](O)C2)cc1,302 µM
22,O=C(/C=C/c1ccccc1C(F)(F)F)N1C[C@H](O)[C@@H](O)C1,656 µM
23,Nc1ccc(CCC(=O)N2C[C@H](O)[C@@H](O)C2)cc1,185 µM
24,O=C(CCc1ccccc1C(F)(F)F)N1C[C@H](O)[C@@H](O)C1,124 µM
25,O=C(/C=C/c1ccccc1F)N1C[C@@H](O)[C@H](O)C1,862 µM
26,O=C(CCc1ccc(NS(=O)(=O)c2ccc(C(F)(F)F)cc2)cc1)N1C[C@H](O)[C@@H](O)C1,463 µM

# Now from value to compound:
row,IC50,Structure (SMILES)
1,506 µM,O=C(/C=C/c1ccc(O)cc1)N1C[C@H](O)[C@@H](O)C1
2,200 µM,O=C(/C=C/c1ccc(F)cc1)Nc1ccc(CCC(=O)N2C[C@H](O)[C@@H](O)C2)cc1
3,114 µM,O=C(CCc1ccc(N(S(=O)(=O)c2ccc(C(F)(F)F)cc2)S(=O)(=O)c2ccc(C(F)(F)F)cc2)cc1)N1C[C@H](O)[C@@H](O)C1
4,462 µM,OCCN1C[C@H](O)[C@@H](O)[C@H](O)[C@H]1CO [MIGLITOL]
5,605 µM,O=C(/C=C/c1ccc(C(F)(F)F)cc1)N1C[C@@H](O)[C@H](O)C1
6,272 µM,O=C(CCc1ccccc1C(F)(F)F)N1C[C@@H](O)[C@H](O)C1
7,607 µM,O=S(=O)(c1ccc(O)cc1)N1C[C@@H](O)[C@H](O)C1
8,453 µM,O=S(=O)(c1ccc(O)cc1)N1C[C@H](O)[C@@H](O)C1
9,360 µM,C[C@H]1O[C@H](O[C@H]2[C@H](O)[C@@H](O)[C@@H](O[C@H]3[C@H](O)[C@@H](O)C(O)O[C@@H]3CO)O[C@@H]2CO)[C@H](O)[C@@H](O)[C@@H]1N[C@H]1C=C(CO)[C@@H](O)[C@H](O)[C@H]1O (stereo not given in full) [ACARBOSE]
10,262 µM,Nc1ccc(CCC(=O)Nc2ccc(CCC(=O)N3C[C@H](O)[C@@H](O)C3)cc2)cc1
11,228 µM,O=S(=O)(c1ccc(OC(F)(F)F)cc1)N1C[C@H](O)[C@@H](O)C1
12,474 µM,O=C(Nc1ccc(CCC(=O)N2C[C@@H](O)[C@H](O)C2)cc1)c1ccsc1
13,652 µM,O=C(/C=C/c1ccc(C(F)(F)F)cc1)N1C[C@H](O)[C@@H](O)C1
14,556 µM,CC(C)(C)OC(=O)Nc1ccc(CCC(=O)N2C[C@@H](O)[C@@H](O)C2)cc1
15,546 µM,O=C(/C=C/c1ccc(O)cc1)N1C[C@@H](O)[C@H](O)C1
16,863 µM,O=C(CCc1ccc(C(F)(F)F)cc1)N1C[C@H](O)[C@@H](O)C1
17,856 µM,O=C(CCc1ccc(C(F)(F)F)cc1)N1C[C@@H](O)[C@H](O)C1
18,429 µM,O=C(CCc1ccc(NS(=O)(=O)c2ccc(C(F)(F)F)cc2)cc1)N1C[C@@H](O)[C@H](O)C1
19,556 µM,Cn1c(C(=O)N2C[C@H](O)[C@@H](O)C2)cc2ccccc21
20,772 µM,O=C(CCc1ccc([N+](=O)[O-])cc1)N1C[C@H](O)[C@@H](O)C1
21,943 µM,O=C(CCc1ccncc1)N1C[C@H](O)[C@@H](O)C1
22,259 µM,Nc1ccc(CCC(=O)Nc2ccc(CCC(=O)N3C[C@@H](O)[C@H](O)C3)cc2)cc1

# Species: Homo sapiens
# Assay: Potency index, ratio of acarbose IC50 to compound IC50 for alpha glucosidase (unknown origin)
# Conditions: not given
row,Structure (SMILES),Ratio IC50
1,O=C(CCc1ccc(O)cc1)Nc1ccc(CCC(=O)N2C[C@H](O)[C@@H](O)C2)cc1,3 to 4
2,O=C(CCc1ccc(O)cc1)Nc1ccc(CCC(=O)N2C[C@@H](O)[C@H](O)C2)cc1,3 to 4
3,Nc1ccc(CCC(=O)N2C[C@@H](O)[C@H](O)C2)cc1,3 to 4

# Species: Homo sapiens
# Assay: Potency index, ratio of voglibose IC50 to compound IC50 for alpha glucosidase (unknown origin)
# Conditions: not given
row,Structure (SMILES),Ratio IC50
1,O=C(CCc1ccc(O)cc1)Nc1ccc(CCC(=O)N2C[C@H](O)[C@@H](O)C2)cc1,3 to 4
2,O=C(CCc1ccc(O)cc1)Nc1ccc(CCC(=O)N2C[C@@H](O)[C@H](O)C2)cc1,3 to 4
3,Nc1ccc(CCC(=O)N2C[C@@H](O)[C@H](O)C2)cc1,3 to 4

# Species: Homo sapiens
# Assay: Potency index, ratio of miglitol IC50 to compound IC50 for alpha glucosidase (unknown origin)
# Conditions: not given
row,Structure (SMILES),Ratio IC50
1,O=C(CCc1ccc(O)cc1)Nc1ccc(CCC(=O)N2C[C@H](O)[C@@H](O)C2)cc1,3 to 4
2,O=C(CCc1ccc(O)cc1)Nc1ccc(CCC(=O)N2C[C@@H](O)[C@H](O)C2)cc1,3 to 4
3,Nc1ccc(CCC(=O)N2C[C@@H](O)[C@H](O)C2)cc1,3 to 4

# Biological target: not listed separately
# Assay: Inhibition of alpha glucosidase (unknown origin) using PNPG as substrate preincubated for 10 mins followed by substrate addition measured after 30 mins
# Parameters: species or system Homo sapiens
# Conditions: not given
row,Structure (SMILES),IC50
1,O=C1C=C[C@H](O)N1C(=O)CCc1ccccc1,7820 µM
2,CO[C@H]1C=CC(=O)N1C(=O)CCc1ccccc1,430 µM
